{"source": "patent US20230010299A1", "about": "“HETEROCYCLIC TRPML1 AGONISTS” (LIBRA THERAPEUTICS, INC., priority 2019, published 2023)", "key": {"[1]": {"system": "autophagy reporter Rosella (LC3 tag) in HeK293 cell line", "assay": "Autophagy assay (reporter Rosella, imaging)", "format": "cell-based", "conditions": "Homo sapiens; HeK293 cells stably expressing reporter Rosella; 18 hours incubation; reference Torin-1 1 μM as max signal; read-out: Secondary Assays Autophagy qAC50", "method": "Buffers and Reagents • Tyrode's buffer with 2 mM Ca^2+ in-house solution (130 mM NaCl, 5 mM KCl, 2 mM CaCl2), 1 mM MgCl2, 5 mM NaHCO3, 20 mM HEPES in water at pH 7.4; sterile filtered) • DMSO (Sigma) • Bis-benzimide H 33342 trihydrochloride (Hoechst 33342; Sigma-Aldrich) • Reference molecule (agonist): Torin-1, (#4247, Tocris) stock 1.2 mM in DMSO, stored at −20° C.\nReporter of Autophagy and Cell Line\nReporter Rosella: a fluorescent-based chimera constitutes by two fluorescent proteins, Green and Red variants, acting as a bimodal indicator of pH. […] The reporter is fused to sequence for autophagosome localization (LC3 tag).\nThe reporter Rosella have been stably expressed in HeK293 cell line and used as read-out.\nExperiments have been performed in 384 MTP poly-lysine coated well format. Cells have been seeded in 384-w at a density of 6000 cells/well in 25 μl/well complete growth medium without antibiotics. Twenty-four hours later, cells have been treated with compounds and incubated for further 18 hours. Then the cells have been imaged and assayed for the response to various compounds using the reporter for autophagy expressed in the cells as readout.\nThe experiments were performed in a 384-well format according to the following procedure: • 24 h after seeding, cells were incubated with compounds at the desired concentration, and with the reference molecule (agonist) Torin-1 at a top concentration of 1 μM (max signal), for 18 hours at 37° C. and 5% CO2. The final percentage of DMSO was 0.3% in all the conditions. • Then the culture medium was carefully removed to avoid cells detachment and to discard red phenol into the medium and that can interfere with the measurements. • Staining of the nuclei was obtained by incubating the cells with 8 μM/well of Hoechst 3342 in standard Tyrode's buffer for 20 min at RT • Then the cells were carefully washed two times with standard Tyrode's buffer • Finally, the samples were acquired by recording three fluorescence emission channels (green, red and blue) at 20× magnification and with at least 3-4 fields of view per well in an Operetta CLS microscope (PerkinElmer). • Image analysis was performed by using Harmony software (PerkinElmer). The image analysis involved the following steps: flat-field illumination correction, nuclei segmentation, cell segmentations and identification of vesicles/granules within the cytosol compartments and representing the autophagy vesicles. Measurements of signal intensity ratio (Green to Red) and number of autophagy vesicles per cells were used to obtain information on the effects of compounds on the autophagy flux. • Data from image analysis measurements were finally loaded and analyzed for normalization and fitting procedures in Genedata Screener© software."}, "TRPML1": {"biological_target": "T1, TRPML1 (Homo sapiens, UniProt Q9GZU1)", "T1 construct": "expressed in transfected cells", "T1 sequence (Q9GZU1 whole entry)": "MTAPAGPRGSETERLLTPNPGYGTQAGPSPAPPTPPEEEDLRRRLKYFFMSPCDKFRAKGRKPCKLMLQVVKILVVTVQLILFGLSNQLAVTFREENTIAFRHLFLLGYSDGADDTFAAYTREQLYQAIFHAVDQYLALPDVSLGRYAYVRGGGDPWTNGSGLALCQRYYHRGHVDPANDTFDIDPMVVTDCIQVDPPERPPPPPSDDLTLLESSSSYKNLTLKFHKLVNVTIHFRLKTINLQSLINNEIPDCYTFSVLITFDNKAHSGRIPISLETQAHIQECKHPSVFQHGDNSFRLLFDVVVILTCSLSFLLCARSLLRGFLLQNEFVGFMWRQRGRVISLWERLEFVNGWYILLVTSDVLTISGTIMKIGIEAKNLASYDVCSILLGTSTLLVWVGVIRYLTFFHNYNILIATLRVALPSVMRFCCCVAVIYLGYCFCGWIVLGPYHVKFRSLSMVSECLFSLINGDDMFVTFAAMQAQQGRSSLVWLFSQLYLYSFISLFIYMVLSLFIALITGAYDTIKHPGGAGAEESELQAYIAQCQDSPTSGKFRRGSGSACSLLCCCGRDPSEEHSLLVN", "assay": "Cellular TRPML1 assay (FLIPR TETRA, GCaMP6f calcium read-out)", "format": "cell-based", "conditions": "HEK T-REx/GCaMP6f/TRPML1 cells; Ca2+ response over 300 s, normalized to ML-SA1 50 μM; Ca2+ free or Optimem condition not given; read-out: Ec50 (Activity of TRPML1 agonists)", "method_in_brief": "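HEK T-REx cells stably expressing TRPML1 and GCaMP6f, assayed 24 h after seeding in Ca2+-free Tyrode's (pH 7.4) or Opti-MEM. Compounds injected on FLIPR Tetra (0.5% DMSO) in dose-response from 100 μM (1:2) or 50 μM (1:3.16); fluorescence kinetics 300 s, referenced to 50 μM ML-SA1 stimulator control.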"}}}
{"molecule": "CN(C)S(=O)(=O)c1ccc(S(=O)(=O)NC2CCCCC2N2CCC(Oc3ccccc3)CC2)cc1", "note": "(racemic) [Example 57, N1,N1-dimethyl-N4-[2-(4-phenoxypiperidin-1-yl)cyclohexyl]benzene-1,4-disulfonamide]", "values": [{"measurement": "EC50", "setting": "[1]", "result": 1800, "unit": "nM"}, {"measurement": "EC50", "setting": "TRPML1", "result": 3000, "unit": "nM"}]}
{"molecule": "CN(C)S(=O)(=O)c1ccc(S(=O)(=O)Nc2ccccc2N2CCCCC2)cc1", "note": "[Example 6, N1,N1-dimethyl-N4-[2-(piperidin-1-yl)phenyl]benzene-1,4-disulfonamide]", "values": [{"measurement": "EC50", "setting": "[1]", "result": 4400, "unit": "nM"}, {"measurement": "EC50", "setting": "TRPML1", "result": 1700, "unit": "nM"}]}
{"molecule": "CN(C)S(=O)(=O)c1ccc(S(=O)(=O)Nc2ccccc2N2CCN(C(=O)OC(C)(C)C)CC2)cc1", "note": "[Example 13, tert-butyl 4-{2-[4-(dimethylsulfamoyl)benzenesulfonamido]phenyl}piperazine-1-carboxylate]", "values": [{"measurement": "EC50", "setting": "[1]", "result": 520, "unit": "nM"}, {"measurement": "EC50", "setting": "TRPML1", "result": 2100, "unit": "nM"}]}
{"molecule": "CN(C)S(=O)(=O)c1ccc(S(=O)(=O)Nc2ccccc2N2CCC(Oc3ccccn3)CC2)cc1", "note": "[Example 75, N1,N1-dimethyl-N4-{2-[4-(pyridin-2-yloxy)piperidin-1-yl]phenyl}benzene-1,4-disulfonamide]", "values": [{"measurement": "EC50", "setting": "[1]", "result": 170, "unit": "nM"}, {"measurement": "EC50", "setting": "TRPML1", "result": 1600, "unit": "nM"}]}
{"molecule": "CN(C)S(=O)(=O)c1ccc(S(=O)(=O)Nc2ccccc2N2CCC(C(=O)OC(C)(C)C)CC2)cc1", "note": "[Example 76, f-butyl 1-{2-[4-(dimethylsulfamoyl)benzenesulfonamido]phenyl}piperidine-4-carboxylate]", "values": [{"measurement": "EC50", "setting": "[1]", "result": 59, "unit": "nM"}, {"measurement": "EC50", "setting": "TRPML1", "result": 1300, "unit": "nM"}]}
{"molecule": "CN(C)S(=O)(=O)c1ccc(S(=O)(=O)Nc2ccccc2N2CCC(Oc3cnccn3)CC2)cc1", "note": "[Example 77, N1,N1-dimethyl-N4-{2-[4-(pyrazin-2-yloxy)piperidin-1-yl]phenyl} benzene-1,4-disulfonamide]", "values": [{"measurement": "EC50", "setting": "[1]", "result": 250, "unit": "nM"}, {"measurement": "EC50", "setting": "TRPML1", "result": 1700, "unit": "nM"}]}
